Activity calls are given as the source filed them.
Tests used:
[1] = molecular target: T1, Melanin-concentrating hormone receptor 1 (Homo sapiens, UniProt Q99705); test: Fluorescence-based counterscreen for antagonists of the G-protein coupled receptor 7 (GPR7): cell-based high throughput dose response assay to identify antagonists of the melanin-concentrating hormone receptor 1 (MCHR1).; type: functional
[2] = molecular target: T2, Neuropeptides B/W receptor type 1 (Homo sapiens, UniProt P48145); test: human NPBW1 receptor blockade, IC50 – cell-based, fluorescence, dose response, late-stage follow-up (AID 463251); type: functional
T2 sequence (P48145 whole entry): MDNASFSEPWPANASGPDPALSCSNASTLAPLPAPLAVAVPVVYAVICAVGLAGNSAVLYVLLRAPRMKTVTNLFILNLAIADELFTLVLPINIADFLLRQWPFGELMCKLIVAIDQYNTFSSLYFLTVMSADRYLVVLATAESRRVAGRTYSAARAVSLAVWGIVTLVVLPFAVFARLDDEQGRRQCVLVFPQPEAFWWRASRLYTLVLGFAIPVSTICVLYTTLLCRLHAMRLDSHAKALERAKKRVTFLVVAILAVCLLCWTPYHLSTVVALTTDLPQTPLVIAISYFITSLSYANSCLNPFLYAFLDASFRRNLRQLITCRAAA

[3] = molecular target: T2, Neuropeptides B/W receptor type 1; test: Fluorescence-based dose response cell-based high throughput screening assay to identify antagonists of the G-protein coupled receptor 7 (GPR7). [Related pubchem assays: 1952 (Screening assay (GPR7 antagonists).), 1880 (Summary AID.)]; type: functional
[4] = molecular target: T3, Corticotropin-releasing factor receptor 2/Corticotropin-releasing factor-binding protein (Homo sapiens, UniProt P24387+Q13324); test: activators of CRF receptor 2 with binding protein – uHTS hits, confirmation (AID 602473); type: functional; details: read-out: EC50_Mean
T3 sequence (Q13324 whole entry): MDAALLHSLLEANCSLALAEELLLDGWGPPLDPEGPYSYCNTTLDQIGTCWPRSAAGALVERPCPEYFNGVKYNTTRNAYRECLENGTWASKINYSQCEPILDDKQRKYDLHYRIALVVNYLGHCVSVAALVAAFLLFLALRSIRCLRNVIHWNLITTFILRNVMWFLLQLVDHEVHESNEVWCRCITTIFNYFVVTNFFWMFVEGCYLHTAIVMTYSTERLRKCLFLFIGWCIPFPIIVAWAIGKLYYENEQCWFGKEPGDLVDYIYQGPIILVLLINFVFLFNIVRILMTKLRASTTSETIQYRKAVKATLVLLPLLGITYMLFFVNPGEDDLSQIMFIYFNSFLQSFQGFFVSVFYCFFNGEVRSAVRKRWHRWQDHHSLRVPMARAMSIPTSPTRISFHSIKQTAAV
T3 sequence (P24387 whole entry): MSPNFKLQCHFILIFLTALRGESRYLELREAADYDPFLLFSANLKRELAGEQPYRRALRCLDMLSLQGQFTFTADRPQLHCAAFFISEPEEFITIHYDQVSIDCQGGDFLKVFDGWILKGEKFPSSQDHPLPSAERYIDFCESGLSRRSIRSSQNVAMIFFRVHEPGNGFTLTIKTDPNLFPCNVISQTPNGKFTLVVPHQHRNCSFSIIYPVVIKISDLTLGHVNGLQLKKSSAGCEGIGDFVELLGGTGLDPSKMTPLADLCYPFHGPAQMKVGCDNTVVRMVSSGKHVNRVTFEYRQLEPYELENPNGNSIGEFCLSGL

[5] = molecular target: T1, Melanin-concentrating hormone receptor 1; test: Late-stage fluorescence-based counterscreen for antagonists of the G-protein coupled receptor 7 (GPR7): cell-based dose response assay to identify antagonists of the melanin-concentrating hormone receptor 1 (MCHR1). [Related pubchem assays (depositor defined):AID1861, AID1880, AID1952, AID2148, AID2251, AID2257, AID485339]; type: functional
[6] = molecular target: Phosphoethanolamine/phosphocholine phosphatase (Homo sapiens, UniProt Q8TCT1); test: SAR assay for compounds that inhibit PHOSPHO1. [Related pubchem assays (depositor defined):AID1545, AID1565, AID1574]
[7] = molecular target: T4, Replicative DNA helicase DnaB (Mycobacterium tuberculosis, UniProt P9WMR3); test: DnaB intein splicing inhibitors, dose response, biochemical, cell-free fluorescence (AID 449749); type: functional
T4 sequence (P9WMR3 whole entry): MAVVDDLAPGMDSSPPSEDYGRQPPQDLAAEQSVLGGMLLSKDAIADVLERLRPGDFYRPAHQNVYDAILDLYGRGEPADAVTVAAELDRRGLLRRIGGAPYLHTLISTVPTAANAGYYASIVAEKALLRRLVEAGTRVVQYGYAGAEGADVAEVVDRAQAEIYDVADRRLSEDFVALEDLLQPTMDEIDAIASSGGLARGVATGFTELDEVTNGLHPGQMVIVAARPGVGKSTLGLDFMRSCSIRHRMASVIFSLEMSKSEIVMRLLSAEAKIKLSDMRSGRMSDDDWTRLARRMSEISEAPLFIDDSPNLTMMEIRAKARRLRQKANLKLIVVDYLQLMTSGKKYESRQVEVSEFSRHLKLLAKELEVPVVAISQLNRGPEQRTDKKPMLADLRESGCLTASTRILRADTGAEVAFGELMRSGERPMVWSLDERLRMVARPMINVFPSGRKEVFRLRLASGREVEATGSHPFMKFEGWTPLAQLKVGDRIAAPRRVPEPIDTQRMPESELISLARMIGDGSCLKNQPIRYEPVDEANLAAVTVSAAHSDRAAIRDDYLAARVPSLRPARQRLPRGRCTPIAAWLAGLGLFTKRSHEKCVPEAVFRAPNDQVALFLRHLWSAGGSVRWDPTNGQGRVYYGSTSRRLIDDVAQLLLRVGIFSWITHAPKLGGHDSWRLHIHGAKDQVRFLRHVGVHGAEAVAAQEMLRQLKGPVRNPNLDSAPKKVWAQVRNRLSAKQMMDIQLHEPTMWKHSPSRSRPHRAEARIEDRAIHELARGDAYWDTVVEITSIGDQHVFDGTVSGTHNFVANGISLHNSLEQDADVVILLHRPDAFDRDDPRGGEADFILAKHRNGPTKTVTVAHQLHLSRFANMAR

[8] = Intein inhibitors as potential Tuberculosis drugs, a cytotoxicity screen. [Related pubchem assays (depositor defined):AID2221, AID2223, AID434968, AID435010, AID449749, AID449750, AID489010]; type: functional
[9] = HEK-293T viability loss after treatment – luminescence, T-cell screen hits, cytotoxicity control for TCR NF-kB inhibitor project, dose response (AID 489026); type: functional, cell-based;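 further: cells exposed to compound about 14 hours before the viability readout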
Protein RecA = molecular target: T5, Protein RecA (Mycobacterium tuberculosis, UniProt P9WHJ3); test: Fluorescence Cell-Free Homogeneous Dose Retest to Identify Inhibitors of RecA-Intein Splicing Activity. [Related pubchem assays (depositor defined):AID2097, AID2223, AID489010, AID492950]; type: functional
T5 sequence (P9WHJ3 whole entry): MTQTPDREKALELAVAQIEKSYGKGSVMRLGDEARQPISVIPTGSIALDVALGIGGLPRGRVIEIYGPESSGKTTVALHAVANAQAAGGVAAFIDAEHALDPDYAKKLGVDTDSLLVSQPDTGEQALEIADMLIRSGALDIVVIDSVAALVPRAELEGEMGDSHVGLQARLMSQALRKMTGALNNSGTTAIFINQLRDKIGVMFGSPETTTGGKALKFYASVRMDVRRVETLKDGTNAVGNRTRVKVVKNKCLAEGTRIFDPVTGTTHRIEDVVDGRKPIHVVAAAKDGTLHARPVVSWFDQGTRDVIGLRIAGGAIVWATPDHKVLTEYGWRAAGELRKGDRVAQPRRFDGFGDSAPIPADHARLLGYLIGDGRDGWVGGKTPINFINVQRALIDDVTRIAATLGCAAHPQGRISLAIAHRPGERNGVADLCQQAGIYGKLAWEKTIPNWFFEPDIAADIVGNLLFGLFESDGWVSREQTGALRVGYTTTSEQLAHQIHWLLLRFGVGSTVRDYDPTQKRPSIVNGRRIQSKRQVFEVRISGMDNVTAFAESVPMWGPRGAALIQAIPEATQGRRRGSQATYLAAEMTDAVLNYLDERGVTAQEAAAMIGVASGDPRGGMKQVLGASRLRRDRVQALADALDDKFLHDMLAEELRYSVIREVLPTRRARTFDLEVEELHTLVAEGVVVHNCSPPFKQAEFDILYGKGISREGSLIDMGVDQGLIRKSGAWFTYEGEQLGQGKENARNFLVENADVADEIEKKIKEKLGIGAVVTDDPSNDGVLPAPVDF
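Wherever CC50 is given: cells exposed to compound for 72 hours before luminescence readout.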

T1 sequence (Q99705 whole entry): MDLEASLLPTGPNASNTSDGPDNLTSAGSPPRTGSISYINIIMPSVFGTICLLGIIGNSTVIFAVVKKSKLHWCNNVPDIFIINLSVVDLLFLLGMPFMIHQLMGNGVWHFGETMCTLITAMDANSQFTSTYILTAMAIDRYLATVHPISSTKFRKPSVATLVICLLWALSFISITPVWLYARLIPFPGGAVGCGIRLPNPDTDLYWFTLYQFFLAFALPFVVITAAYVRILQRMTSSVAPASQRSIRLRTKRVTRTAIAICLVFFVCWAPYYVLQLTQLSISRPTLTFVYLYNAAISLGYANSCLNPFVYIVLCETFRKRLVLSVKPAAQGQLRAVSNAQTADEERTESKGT
Phosphoethanolamine/phosphocholine phosphatase, sequence (Q8TCT1 whole entry): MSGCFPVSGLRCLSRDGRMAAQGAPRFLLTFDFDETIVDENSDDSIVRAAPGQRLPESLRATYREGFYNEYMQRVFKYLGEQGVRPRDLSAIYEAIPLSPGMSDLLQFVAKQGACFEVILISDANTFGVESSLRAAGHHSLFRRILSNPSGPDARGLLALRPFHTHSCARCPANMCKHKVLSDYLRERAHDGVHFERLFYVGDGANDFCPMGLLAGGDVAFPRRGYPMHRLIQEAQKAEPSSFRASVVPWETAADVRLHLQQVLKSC

For COc1ccccc1-n1c(SCC(N)=O)nnc1-c1ccc(S(=O)(=O)N2CCCCC2)cc1, the IC50 [1] was > 43.8 µM (not active), the IC50 [2] was > 20 µM (inactive) and the IC50 [3] was 5.36 µM (active). For the same compound, the EC50 [4] was 12.7 µM (active) and the IC50 [5] was > 20 µM (inactive).

With COc1ccc(-c2nc(N)s[n+]2-c2ccccc2)cc1 the IC50 [6] was 1.25 µM (inactive).

With CC(C)(C)c1csc(Sc2ccc([N+](=O)[O-])cn2)n1 the AC50 [7] was 2.54 µM (active), the CC50 [8] was > 40 µM (active) and the IC50 [9] was > 80 µM (inactive). For the same compound, the EC50 (Protein RecA) was 1.75 µM (active).

Source: ChEMBL document CHEMBL1201862, “PubChem BioAssay data set” (2004)
